Source: patent US10933093B2, “Compositions and methods of treating a T cell mediated disorder” (CASE WESTERN RESERVE UNIVERSITY, priority 2009, dated 2021)

B1: C5a: Murine C5a from Cell Sciences, Inc (protein, UniProt P06684 679-755, looked up)
C5a anaphylatoxin: NLHLLRQKIEEQAAKYKHSVPKKCCYDGARVNFYETCEERVARVTIGPLCIRAFNECCTIANKIRKESPHKPVQLGR
modifications: C5a anaphylatoxin
notes: Murine C5a from Cell Sciences, Inc

How the values were obtained:
[1] = system: anti-CD3/CD28 stimulated CD4^+ cells; test: qPCR of complement and FoxP3 mRNA in anti-CD3/CD28 stimulated CD4+ cells; assay type: cell-based, C57BL/6 mice; conditions: for FoxP3 mRNA transcription: anti-CD3/28 stimulated naive CD4+ cells, C5a 100 ng/ml, 1 hr; for transcription of complement genes (complement mRNA): qPCR
Protocol: FIGS. 3(A-I) illustrate graphs showing: A) 1×10^6 CD62L^hiCD25^−CD4^+ cells from WT or C3aR^−/−C5aR^−/− mice were incubated with anti-CD3/CD28 Dynabead activation beads, 5 ng/ml rhIL-2, and 1×10^5 CD11c^+ WT DCs for 3 days. The CD4^+ cell and DC partners were sorted, after which the DCs were assayed for B7 family members (*P<0.01; **P<0.03; ***P=0.07) and the CD4^+ cells were assayed for B7 coinhibitory counter-receptors by flow. B) 1×10^6 CD62L^hiCD25^−CD4^+ cells from WT mice were incubated with anti-CD3/CD28 Dynabead activation beads, 5 ng/ml rhIL-2, and 1×10^5 CD11c^+ WT DCs for 3 days±10 nM C3aR-A/C5aR-A or ±5 ng/ml rhTGF-fβ1. The CD4^+ cell and DC partners were sorted, after which the cells were assayed as in (A; *P<0.01 C3aR-A/C5aR-A vs. TGF-β1). C) 1×10^6 CD62L^hiCD25^− CD4^+ cells from WT or C3aR^−/−C5aR^−/− were incubated with anti-CD3/CD28 Dynabead activation beads, 5 ng/ml rhIL-2, and 1×10^5 CD11c^+ WT DCs for 3 days in the presence of blocking anti-CTLA-4, anti-PD-1, or anti-ICOS-L Abs and percent FoxP3^+ cells assayed by flow cytometry. D) 1×10^6 CD62L^hiCD25^− CD4^+ cells from WT, ICOS^−/−, or PD-1^−/− were incubated with anti-CD3/CD28 Dynabead activation beads, 5 ng/ml rhIL-2, and […] CD11c^+ WT or PD-L1^−/− DCs for 3 days in the presence of blocking anti-CTLA-4, anti-PD-1, or anti-ICOS-L Abs and percent FoxP3^+ cells assayed by flow cytometry. E) Anti-CD3/CD28 stimulated CD4^+ cells were treated with TGF-β1 or buffer and complement mRNA transcripts were assayed by qPCR. F-H) 1×10^4 CD62L^hiCD25^− CD4^+ cells from C57BL/6 mice were incubated with anti-CD3/CD28 Dynabeads and 5 ng/ml rhIL-2 for 3 days in the presence of TGF-β, TGF-β+IL-6, or IL-6 after which cells were assayed for (F) C3 mRNA expression by qPCR, (G) C3 and C5a generation by ELSIA, and (H) C3aR and C5aR surface expression by flow cytometry. I) C57BL/6 CD4^+ T cells were incubated for 1 hr with anti-CD3/CD28±100 ng/ml C5a and FoxP3 mRNA was quantitated by qPCR.
For C3aR/C5aR signaling to be absent, local complement production by interacting DCs and CD4^+ cells must not occur or be suppressed. […] As a first test of this, we incubated anti-CD3/CD28 stimulated CD4^+ cells in the presence and absence of TGF-β1. […] To test how IL-6 affects CD4^+ cell complement production, we added IL-6 to naive CD4^+ cells. […]
[…] for 5 min at 20° C. using Trizol (Invitrogen, Carlsbad, Calif.) according to the manufacturer. When C3aR and C5aR mRNAs were analyzed, preparations were treated with DNase I (standard protocol) to remove genomic DNA. cDNAs were synthesized by incubating 20 μl of mRNAs in Sprint PowerScript Single Shots (Clontech, Mountain View, Calif.). […]

C3aR/C5aR expression = test: C3aR and C5aR surface expression by flow cytometry; assay type: cell-based, C57BL/6 mice; conditions: 3 days
Protocol: (§1) FIGS. 3(A-I) illustrate graphs showing: A) 1×10^6 CD62L^hiCD25^−CD4^+ cells from WT or C3aR^−/−C5aR^−/− mice were incubated with anti-CD3/CD28 Dynabead activation beads, 5 ng/ml rhIL-2, and 1×10^5 CD11c^+ WT DCs for 3 days. The CD4^+ cell and DC partners were sorted, after which the DCs were assayed for B7 family members (*P<0.01; **P<0.03; ***P=0.07) and the CD4^+ cells were assayed for B7 coinhibitory counter-receptors by flow. B) 1×10^6 CD62L^hiCD25^−CD4^+ cells from WT mice were incubated with anti-CD3/CD28 Dynabead activation beads, 5 ng/ml rhIL-2, and 1×10^5 CD11c^+ WT DCs for 3 days±10 nM C3aR-A/C5aR-A or ±5 ng/ml rhTGF-fβ1. The CD4^+ cell and DC partners were sorted, after which the cells were assayed as in (A; *P<0.01 C3aR-A/C5aR-A vs. TGF-β1). C) 1×10^6 CD62L^hiCD25^− CD4^+ cells from WT or C3aR^−/−C5aR^−/− were incubated with anti-CD3/CD28 Dynabead activation beads, 5 ng/ml rhIL-2, and 1×10^5 CD11c^+ WT DCs for 3 days in the presence of blocking anti-CTLA-4, anti-PD-1, or anti-ICOS-L Abs and percent FoxP3^+ cells assayed by flow cytometry. […] I) C57BL/6 CD4^+ T cells were incubated for 1 hr with anti-CD3/CD28±100 ng/ml C5a and FoxP3 mRNA was quantitated by qPCR. […]

[2] = system: DC-CD4^+ cell C3a/C5a production; test: C3a/C5a generation by ELISA; assay type: cell-based, C57BL/6 mice; conditions: 3 days
Protocol: as §1, with “TGF-β1).” for “TGF-β1). C) 1×10^6 CD62L^hiCD25^− CD4^+ cells from WT or C3aR^−/−C5aR^−/− were incubated with anti-CD3/CD28 Dynabead activation beads, 5 ng/ml rhIL-2, and 1×10^5 CD11c^+ WT DCs for 3 days in the presence of blocking anti-CTLA-4, anti-PD-1, or anti-ICOS-L Abs and percent FoxP3^+ cells assayed by flow cytometry.”
For C5a, C3a, IL-2, IL-10, and IL-6, capture and biotinylated detection Ab pairs were purchased from BD Biosciences. […] Reactions were terminated using 1N H2SO4 and plates were read using a SpectraMax M2 fluorimeter. • Induction and Evaluation of EAE

iTregs = test: Costimulatory molecule expression of iTregs by flow cytometry; assay type: cell-based, mice; conditions: higher
Protocol: as §1

naive CD4^+ cells = test: FoxP3+ iTreg induction from naive CD4+ cells stimulated with anti-CD3, IL-2 and DCs (flow cytometry); assay type: cell-based, mice
[3] = system: human CD45RA^+CD25^−CD4^+ cells; test: Human iTreg preparation and human Treg suppression assay; assay type: cell-based
Protocol: FIGS. 5(A-G) illustrate graphs showing, A-C) EAE was induced in FoxP3-GFP knockin mice and 10 days after disease onset, CD4 cells were isolated from spleens and lymph nodes and sorted on GFP. 4×10^6 GFP negative cells were adoptively transferred into Rag2^−/− mice. The mice were subsequently injected with 1×10^6 FoxP3-GFP positive cells or PBS after which A) weight change, B) clinical scores, and C) percent FoxP3^+ cells were assayed. D-E) EAE was induced in WT and C3aR^−/−C5aR^−/− mice and at day 12 post disease induction draining LN cells were harvested and assayed for D) % FoxP3^+ cells, and E) suppressive capacity as above. F) EAE was induced in FoxP3-GFP knockin mice and 10 days after induction mice were treated with buffer control, C3aR-A/C5aR-A, or ex vivo generated FoxP3^+ Tregs (from FoxP3-GFP mice with C3aR-A/C5aR-A), after which […]) clinical scores were assessed. G) CD25^+ cells from 1×10^6 CD25^−CD4^+ Human T cells isolated by flow cytometry and incubated with soluble anti-CD3, IL-2, and autologous DCs in the presence and absence of TGF-β, C3aR-A/C5aR-A, or anti-C3a/C5a mAbs for 3 days were incubated with CFSE labeled autologous naive T cells, anti-CD3, and autologous DCs and percent dividers determined 3 days thereafter by CFSE dilution. […]

[4] = system: CellTracker Red-labeled OT-II cells; test: Murine Treg suppression assay; assay type: cell-based, mice; conditions: cells from stimulated naive C3−/−C5−/− CD4+ cells, C5a added

Molecule | FoxP3 mRNA transcription [1] | transcription of complement genes (complement mRNA) [1] | C3aR/C5aR expression (C3aR/C5aR expression) | DC-CD4+ cell C3a/C5a production [2] | costimulatory molecule expression of iTregs generated with exogenous TGF-β1 relative to those generated by C3aR/C5aR antagonism (iTregs) | FoxP3+ cell induction (naive CD4^+ cells; anti-CD3/CD28 stimulated CD4+ cells, added TGF-β1) | costimulatory molecules on human iTregs (phenotyping) ([3]; human iTregs) | suppression by CD25+ (FoxP3+) cells of CFSE-labeled CD25−CD4+ cells ([3]; human, equal number of sorted CD25+ cells, DCs, anti-CD3, same individual) | iTreg induction (naive CD4^+ cells; naive C3−/−C5−/− CD4+ cells stimulated with anti-CD3, DCs and IL-2, C5a added) | suppressor function [4]
IL-6: cytokine IL-6 added to naive CD4+ cells | inhibited | upregulated | upregulated | evoked | – | – | – | – | – | –
TGF-β1: human TGF-β1 from Prospec Bio | – | abolished | did neither | did neither | 3-6 fold | induced FoxP3^+ cells | showed costimulatory molecules | little effect | – | –
B1 | inhibited | – | – | – | – | – | – | – | blocked | blocked
